Assay results reported in PubChem BioAssay AID330 (DTP/NCI, 2004).
Where “and” joins values, the source holds several entries; their conditions need not be identical. Identical values can stand only once. Inconclusive results and toxic doses are left out. The calls were made as follows: active = survival T/C of 150% or more; inactive = T/C below 125% in these data.

Tested on: P388 leukemia ip, CD2F1 mice, survival T/C
Test: NCI In Vivo Anticancer Drug Screen. Data for tumor model P388 Leukemia (intraperitoneal) in CD2F1 (CDF1) mice
Conditions: endpoint: median survival time, higher = longer survival
Procedure, shortened: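 Mice carrying the transplanted tumor received test compound or vehicle. Survival was recorded in each group, and the value is the treated-group measurement divided by that of the vehicle-treated control group.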

[1] = dose: 60.0 mg/kg/injection, schedule: Q01DX005 (ip), vehicle: Klucel (hydroxypropylcellulose) (HPC)
[2] = dose: 120.0 mg/kg/injection, schedule: Q01DX005 (ip), vehicle: Klucel (hydroxypropylcellulose) (HPC)
[3] = dose: 240.0 mg/kg/injection, schedule: Q01DX005 (ip), vehicle: Klucel (hydroxypropylcellulose) (HPC)

Measured: T/C

CC1(c2ccccc2)NC(=O)N(CC(=O)N(c2ccccc2)c2ccccc2)C1=O (stereo not drawn)
inactive: dose: 7.5 mg/kg/injection, schedule: Q01DX005 (ip), vehicle: saline with Tween-80 91 % of control | dose: 15.0 mg/kg/injection, schedule: Q01DX005 (ip), vehicle: saline with Tween-80 92 % of control | dose: 30.0 mg/kg/injection, schedule: Q01DX005 (ip), vehicle: saline with Tween-80 92 % of control and 93 % of control | dose: 60.0 mg/kg/injection, schedule: Q01DX005 (ip), vehicle: saline with Tween-80 87 % of control and 88 % of control | dose: 120.0 mg/kg/injection, schedule: Q01DX005 (ip), vehicle: saline with Tween-80 86 % of control | dose: 240.0 mg/kg/injection, schedule: Q01DX005 (ip), vehicle: saline with Tween-80 94 % of control

C/C(CC(O)(c1ccccc1)c1ccccc1)=N/Sc1ccccc1
inactive: dose: 100.0 mg/kg/injection, schedule: Q04DX003 (ip), vehicle: Klucel (hydroxypropylcellulose) (HPC) 100 % of control | dose: 200.0 mg/kg/injection, schedule: Q04DX003 (ip), vehicle: Klucel (hydroxypropylcellulose) (HPC) 92 % of control | dose: 400.0 mg/kg/injection, schedule: Q04DX003 (ip), vehicle: Klucel (hydroxypropylcellulose) (HPC) 94 % of control

CCOC(=O)c1c[nH]c2ccc3c(nc(C)n3C)c2c1=O
inactive: dose: 30.0 mg/kg/injection, schedule: Q01DX005 (ip), vehicle: Klucel (hydroxypropylcellulose) (HPC) 102 % of control and 91 % of control | [1] 103 % of control and 110 % of control and 91 % of control | [2] 112 % of control (2×) and 113 % of control | [3] 115 % of control and 122 % of control and 123 % of control

COc1cc([C@@H]2OC[C@@H]3C(c4cc(OC)c5c(c4)OCO5)OC[C@@H]32)cc(OC)c1OC (stereo partly drawn)
inactive: dose: 5.0 mg/kg/injection, schedule: Q01DX009 (ip), vehicle: saline + Tween-80 + alcohol 102 % of control | dose: 10.0 mg/kg/injection, schedule: Q01DX009 (ip), vehicle: saline + Tween-80 + alcohol 101 % of control | dose: 20.0 mg/kg/injection, schedule: Q01DX009 (ip), vehicle: saline + Tween-80 + alcohol 105 % of control | dose: 40.0 mg/kg/injection, schedule: Q01DX009 (ip), vehicle: saline + Tween-80 + alcohol 105 % of control

O=C1OC2(O)c3ccccc3C(=O)N2N2CCCC12 (stereo not drawn)
inactive: [1] 109 % of control | [2] 98 % of control | [3] 98 % of control

COc1ccc2nc(CC(=N)c3ccc(N(C)C)cc3)ccc2c1
inactive: dose: 50.0 mg/kg/injection, schedule: Q01DX005 (ip), vehicle: saline with Tween-80 89 % of control | dose: 100.0 mg/kg/injection, schedule: Q01DX005 (ip), vehicle: saline with Tween-80 89 % of control | dose: 200.0 mg/kg/injection, schedule: Q01DX005 (ip), vehicle: saline with Tween-80 92 % of control
